Experimental data as given in patent US9023805B2, “Increasing cancer patient survival time by administration of dithio-containing compounds” (BioNumerik Pharmaceuticals, Inc., priority 2010, dated 2015).
Entries after “also recorded” stand apart in the source; their conditions may differ.

Experiments:
[1] = test system: coupled thioredoxin (TX)/thioredoxin reductase (TXR) system; test: NADPH oxidation, thioredoxin reductase + thioredoxin; assay type: biochemical, bovine; settings: for NADPH Oxidation, Thioredoxin Reductase + Thioredoxin: Disulfide 0.5 mM, minimum of triplicate assays
Procedure: (§1) The activity of TXR and TX was determined by following NADPH oxidation at 340 nm according to the previously reported method. See, Luthman, M., and Holmgren, A. Rat liver thioredoxin and thioredoxin reductase: purification and characterization. Biochemistry 21:6628-6633 (1982). A typical assay mixture contained TR buffer (50 mM potassium phosphate, pH 7.0, 1 mM EDTA), […] NADPH, 1.6 μg bovine TX, and one or more of the following: 4.8 μM TXR, 86 μM insulin, and one of the disulfides described herein. All disulfides were added to reactions as 10× solutions in TR buffer. The total volume of each reaction was 0.1 mL. Reactions were initiated by the addition of TX and were incubated at 25° C. for 40 min. The activity was calculated using a 4 min. linear portion of each reaction. Enzyme assays were carried out using either a Molecular Devices SpectraMaxPlus UV plate reader or a Varian Cary 100 UV-visible Spectrophotometer.
Data was then collected and plotted in Microsoft Excel. Error calculations, and graphical representations were performed in Microsoft Excel and Kaleidograph (ver. 3.5). Nonlinear data was graphically rendered using Kaleidograph. ANOVA and other statistical analyses were performed using SAS (ver. 8.2). Unless otherwise noted, significance level was set at 0.05, and error bars represent actual experimental standard deviation.

[2] = target: T1, glutathione reductase (GR) (Homo sapiens, UniProt P00390); test: NADPH oxidation, GR; assay type: biochemical
T1 sequence (P00390 44-522): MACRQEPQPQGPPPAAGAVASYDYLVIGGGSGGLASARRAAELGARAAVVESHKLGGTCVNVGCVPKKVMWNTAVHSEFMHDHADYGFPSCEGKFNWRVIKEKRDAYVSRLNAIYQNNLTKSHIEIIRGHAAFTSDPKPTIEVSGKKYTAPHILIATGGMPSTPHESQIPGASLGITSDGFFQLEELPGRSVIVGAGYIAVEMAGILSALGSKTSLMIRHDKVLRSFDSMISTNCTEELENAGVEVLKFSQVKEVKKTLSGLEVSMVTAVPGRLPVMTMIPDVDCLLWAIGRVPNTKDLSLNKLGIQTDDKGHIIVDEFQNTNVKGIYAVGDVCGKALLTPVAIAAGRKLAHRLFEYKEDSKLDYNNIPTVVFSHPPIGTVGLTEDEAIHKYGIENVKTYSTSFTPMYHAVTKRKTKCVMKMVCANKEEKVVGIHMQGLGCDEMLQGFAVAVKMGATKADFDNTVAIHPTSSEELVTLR
Procedure: (§2) The Formula (I) compound was utilized at a concentration of 0.5 mM.

[3] = target: T2, coupled glutaredoxin (GRX)/glutathione (GSH)/glutathione reductase (GR) system (Homo sapiens, UniProt P35754); test: NADPH oxidation, GR + GRX + GSH; assay type: biochemical; settings: in the presence of reduced glutathione and glutathione reductase
T2 sequence (P35754 2-106 limits assumed): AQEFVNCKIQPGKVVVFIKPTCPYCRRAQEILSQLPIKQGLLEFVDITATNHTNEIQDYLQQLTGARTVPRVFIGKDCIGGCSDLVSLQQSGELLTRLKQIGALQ
Procedure: as §2

[4] = test system: patients with advanced, Stage IIIB/IV, non-small cell lung carcinoma (NSCLC), including the adenocarcinoma sub-type; test: U.S. Phase II NSCLC Clinical Trial; assay type: in vivo, human
Procedure: (§3) Darbepoetin alfa (200 μg; subcutaneous administration) was administered on day one of the chemotherapy cycle and pegfilgrastim (6 mg subcutaneous administration) was administered on day two of the chemotherapy cycle if the patient's hemoglobin levels were ≦11 g/dL. The aforementioned chemotherapy cycle was repeated every two weeks, for up to a total of six cycles.

[5] = target: T3, Glutathione-S-Transferase (GST) (Homo sapiens, UniProt P09488); test: GST assay: conjugation of reduced glutathione to 1-chloro-2,4-dinitrobenzene (CDNB); assay type: biochemical; settings: read-out: Percent Inhibition
T3 construct: purchased
T3 sequence (P09488 2-218 limits assumed): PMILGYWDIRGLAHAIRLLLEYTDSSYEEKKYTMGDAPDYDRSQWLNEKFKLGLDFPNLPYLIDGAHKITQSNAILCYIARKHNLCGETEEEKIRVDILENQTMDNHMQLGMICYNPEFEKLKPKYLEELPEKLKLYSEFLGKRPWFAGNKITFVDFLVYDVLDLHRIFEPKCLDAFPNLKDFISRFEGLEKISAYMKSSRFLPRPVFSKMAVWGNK
Procedure: An in vitro assay for GST has been developed and reported. See, Meyer, D. J. and Ketterer, B., Purification of soluble human glutathione S-transferases. Methods Enzymol. 252:53-65 (1995). This assay monitors the conjugation of reduced glutathione to 1-chloro-2,4-dinitrobenzene (CDNB), as illustrated in Reaction Scheme II, below.
Reduced thiol forms a conjugate with CDNB (extinction coefficient=9600 M^−1 cm^−1), which is detected at 340 nm. […] A typical 1 mL assay was set up by mixing 500 μl NaHPO4 buffer (200 mM, pH 6.5), 20 μL GSH (50 mM), 20 μL CDNB (50 mM), and 458 μL sterile water. Reactions were incubated at 20° C. in the cuvette holder of the spectrophotometer for approximately 5 min. prior to initiating the assay with the addition of enzyme (ml−1 isotype of GST; activity >100 U/mg). The enzyme stock purchased from the vendor was diluted 1:100 in 200 mM NaHPO4 buffer (pH 6.5), and 2 μL of the diluted enzyme was added to initiate the reaction. The final amount of enzyme added to the assay was typically 0.002 U. Assays were run at 20° C. in 1 mL quartz cuvettes (Hellma Scientific). Slopes were measured in the linear range of the assay (i.e., typically between 5 to 10 min.). […] Final reaction volumes were fixed at 1 mL by adjusting the amount of water added.
a. […]
Raw data was obtained on a Cary 100 spectrophotometer. […] No absorbance values were collected during the process of enzyme addition. […] It was during this time that reaction rates (i.e., slopes of change in absorbance with time) were measured using the Cary 100 software. […] Absorbance and time values during the end phase of the reaction were not used in slope calculations because the reaction was effectively over at this point as the reaction no longer followed the classical Michaelis-Menton model for enzyme kinetics. Completion of the reaction on the Cary software could be detected visually by overlaying a straight line beginning at the addition of enzyme and extending past the end phase of the assay curve. […]

[6] = test system: patients with advanced non-small cell lung carcinoma (NSCLC), including the adenocarcinoma sub-type; test: Japan Phase III Clinical Trial; assay type: in vivo, human
Procedure: as §3
Patients admitted into the trial included those patients without previous treatment (excluding surgical treatment, administration of Picibanil into the serous membrane, irradiation of 30% or less hematopoietic bone, or oral chemotherapeutic agents within 3 months of entry in the trial).
The Japan Phase III Clinical Trial was conducted as a double-blind study because peripheral neuropathy is diagnosed based on subjective symptoms evaluated through clinical interviews, lab tests, and the like. Accordingly, evaluations by both physicians and patients are highly important. […] A placebo was used as control since there is no established therapy or drug for preventing peripheral neuropathy. Because the severity of peripheral neuropathy is evaluated based on patient's reports (i.e., subjective symptoms), the Peripheral Neuropathy Questionnaire (PNQ©) was used in primary evaluation. CIPN-20 and NCI-CTC were used in secondary evaluation. The incidence and severity of adverse reactions, time to their onset, etc. and the like, were compared between patients treated with Tavocept™ and those given a placebo using the aforementioned methods.

[7] = test system: coupled thioredoxin (TX)/thioredoxin reductase (TXR) system; test: TX/TXR catalyzed reduction of the insulin A-B chain disulfide; assay type: biochemical, bovine
Procedure: as §1

whole cells = test: Whole cell mediated disulfide reduction; assay type: cell-based; settings: mesna in combination with cisplatin
[8] = Grade 3 and Grade 4 treatment-related adverse events, Tavocept™ arm versus non-Tavocept™ arm, FIG. 15
[9] = Tavocept™ and chemotherapy vs chemotherapy and placebo

NC(CSSCCS(=O)(=O)O)C(=O)O (centres unmarked) [BNP7766] was tested, and the “substrate (alternative substrate inhibitor) for thioredoxin / the coupled thioredoxin/thioredoxin reductase/NADPH system” value [1] was “substrates” and the “NADPH Oxidation, Thioredoxin Reductase + Thioredoxin” value [1] was 14.4 ± 0.2 nmol/min/mL.
For NC(CCSSCCS(=O)(=O)O)C(=O)O (centres unmarked) [BNP7768], the “substrate (alternative substrate inhibitor) for thioredoxin / the coupled thioredoxin/thioredoxin reductase/NADPH system” value [1] was “substrates” and the “NADPH Oxidation, Thioredoxin Reductase + Thioredoxin” value [1] was 8.6 ± 0.06 nmol/min/mL.
With N[C@@H](CCC(=O)N[C@@H](CSSCCS(=O)(=O)O)C(=O)NCC(=O)O)C(=O)O [BNP7772] the “substrate (alternative substrate inhibitor) for thioredoxin / the coupled thioredoxin/thioredoxin reductase/NADPH system” value [1] was “substrates”, the “NADPH Oxidation, Thioredoxin Reductase + Thioredoxin” value [1] was 14.1 ± 0.1 nmol/min/mL and the “substrate for glutathione reductase” value [2] was “alternative substrate inhibitor”.
NC(CCC(=O)NC(CSSCCS(=O)(=O)O)C(=O)O)C(=O)O (centres unmarked) [BNP7774] was tested, and the “substrate (alternative substrate inhibitor) for thioredoxin / the coupled thioredoxin/thioredoxin reductase/NADPH system” value [1] was “substrates” and the “NADPH Oxidation, Thioredoxin Reductase + Thioredoxin” value [1] was 9.6 ± 0.2 nmol/min/mL.
With N[C@@H](CSSCCS(=O)(=O)O)C(=O)NCC(=O)O [BNP7776] the “substrate (alternative substrate inhibitor) for thioredoxin / the coupled thioredoxin/thioredoxin reductase/NADPH system” value [1] was “substrates” and the “NADPH Oxidation, Thioredoxin Reductase + Thioredoxin” value [1] was 15.8 ± 0.3 nmol/min/mL.
O=S(=O)([O-])CCSSCCS(=O)(=O)[O-].[Na+].[Na+] [Tavocept™, disodium 2,2′-dithio-bis-ethane sulfonate] was tested, and the “substrate-like / alternative substrate inhibitor activity with glutaredoxin (coupled GRX/GSH/GR system)” value [3] was “substrate-like activity”, the “hazard ratio, adenocarcinoma” value ([4]; FIG. 14) was 0.601 and the reduction in dehydration [4, 8] was 50%. The reduction in hypomagnesaemia [4, 8] was 100%, the reduction in nausea [4, 8] was 38.5% and the reduction in vomiting [4, 8] was 71.5%. For the same compound, the hazard ratio ([4]; NSCLC, FIG. 12) was 0.750, the “increase in patient survival, adenocarcinoma” value ([4]; Tavocept™ arm versus non-Tavocept™ arm, FIG. 14) was 6.54 month and the “increase in patient survival, adenocarcinoma” value ([4]; Tavocept™ arm versus non-Tavocept™ arm, FIG. 14, listed as Tavocept) was ~6.5 month. For the same compound, the inhibition at 1100 µM [5] was 5.6%, the inhibition at 3300 µM [5] was 39% and the inhibition at 10000 µM [5] was 66.4%. For the same compound, the chemotherapy-induced kidney damage [6, 9] was “medically-important reductions”, the chemotherapy-induced vomiting/emesis [6, 9] was “medically-important reductions” and the “patients with Grade 3 (severe) decrease in red blood cell” value ([6]; Tavocept™ arm, FIG. 7) was 1 patients. The “Response Rate, as measured by physicians” value ([6]; Tavocept™ arm, FIG. 8 "Doctor") was 41.9%, the “reduction in severe (Grade D or E) peripheral neuropathy (PNQ)” value ([6]; paclitaxel/Tavocept™/cisplatin vs paclitaxel/saline placebo/cisplatin, FIG. 5, GEE P-Value 0.1565 (FIG. 6)) was ~50% and the anorexia ([6]; vs placebo regimen, p=0.0029) was “reductions”. The fatigue ([6]; vs placebo regimen, p=0.0163) was “reductions”, the nausea/vomiting ([6]; vs placebo regimen, p=0.0240) was “reductions” and the diarrhea ([6]; vs placebo regimen, p=0.0859) was “reductions”. For the same compound, the insomnia ([6]; vs placebo regimen, p=0.1108) was “reductions”, the constipation ([6]; vs placebo regimen, p=0.1114) was “reductions” and the “oxidation of reduced thioredoxin to oxidized thioredoxin” value [1] was “drives the oxidation”. The “substrate (alternative substrate inhibitor) for thioredoxin / the coupled thioredoxin/thioredoxin reductase/NADPH system” value [1] was “substrate; also recorded: most likely a substrate for TX”, the “NADPH Oxidation, Thioredoxin Reductase + Thioredoxin” value [1] was 13.1 ± 0.2 nmol/min/mL and the “NADPH oxidation by TXR in the presence of TX” value ([1]; FIG. 17) was “concentration-dependent increase”. The Km ([1]; read-out: Km as substrate for the coupled thioredoxin/thioredoxin reductase system) was 72 µM, the “substrate for glutathione reductase” value [2] was “not a substrate” and the “inhibition of TX/TXR catalyzed reduction of the insulin A-B chain disulfide bond” value [7] was “inhibits”. For the same compound, the Km ([7]; read-out: Km for inhibition of thioredoxin/thioredoxin reductase catalyzed reduction of the insulin A-B chain disulfide) was 3600 µM.
O=S(=O)([O-])CCS.[Na+] [mesna, 2-mercapto ethane sulfonate sodium] was tested, and the “reduction of hydroxyethyldisulfide (GRX substrate) by whole cells” value (whole cells) was “enhanced” and the “reduction of α-lipoic acid (TX/TXR substrate) by whole cells” value (whole cells) was “enhanced”.
